How the values were obtained:
[1] = system: CviR-dependent violacein production; test: Violacein production in wild type C. violaceum, dose-response; format: cell-based; details: Chromobacterium violaceum, read-out: IC50 for inhibition of violacein production
Description: (§1) E. coli strains were grown overnight in LB medium with antibiotics at 37° C. and sub-cultured into fresh medium at a 1:100 dilution. Various AHL and antagonists were added at constant concentrations or titrated as stated. The gfp was measured on an Envision plate reader after 5 hours of growth at 37° C. C. violaceum strains were grown aerobically in 1 mL Nutrient Broth plus 1 mM tryptophan at 30° C. […] Cells were collected via centrifugation at 13000 rpm for 15 minutes. Pellets were resuspended in 1 mL of methanol and incubated at 42° C. for 1 hour. Samples were again collected via centrifugation at 13000 rpm for 5 minutes and analyzed for violacein by measuring optical density at 568 nm on a Beckman Coulter DU-800 spectrophotometer. For the dose-response analyses, all assays were performed in triplicate.
To determine if 4606-4237 inhibits violacein production specifically by interfering with CviR, 4606-4237 was tested for antagonism of CviR in the recombinant E. coli vioA-gfp assay. For these experiments, C6-HSL was held constant at 500 nM, while 4606-4237 was titrated from 1.3 nM to 100 μM (FIG. 3D). This concentration of native C6-HSL signal induces maximal gfp production in this heterologous assay system. Importantly, no C. violaceum components other than CviR are present in the recombinant E. coli assay strain. Thus, any inhibition occurring would be due to a specific interaction between the antagonist molecule 4606-4237 and CviR rather than an interaction of 4606-4237 with some unknown component required for violacein production in C. violaceum. […] Thus, 4606-4237 functions by disabling CviR-mediated activation of gene expression in both the C. violaceum in vivo violacein assay and the recombinant E. coli vioA-gfp assay.

bacterial growth = test: Bacterial growth in presence of antagonist; format: cell-based, Chromobacterium violaceum
[2] = system: C. violaceum killing of C. elegans; test: C. elegans life span assay following C. violaceum infection; format: in vivo, Caenorhabditis elegans; details: C. violaceum cviI mutant
Description: Life Span Assays. C. elegans lifespan assays were completed with at least 100 wild type N2 worms for each condition. C. elegans eggs were harvested from a large population of gravid adults using a standard bleaching protocol (30 mL 5% bleach, 15 mL N KOH, 55 mL DH2O). Harvested eggs were placed on lawns of fresh E. coli OP50 and allowed to hatch and grow to the young adult (L4) stage before being moved onto lawns of C. violaceum. Worms were scored for survival each day and transferred to new C. violaceum lawns every two days until all worms had expired.
In the presence of the mutant strain, the median C. elegans lifespan is twelve days (FIG. 7A; DMSO control). Exogenous addition of the native autoinducer molecule, C6-HSL restored quorum sensing and complemented the cviI mutant's ability to kill C. elegans (median lifespan=4 days, FIG. 7A).

[3] = system: CviR-dependent violacein production; test: Violacein production in C. violaceum cviI mutant with exogenous C6-HSL; format: cell-based, Chromobacterium violaceum; details: 5 μM C6-HSL, 50 μM antagonist
Description: as §1
High-throughput chemical library screens had identified 15 molecules that inhibit AHL detection by the membrane-bound two-component AHL receptor LuxN (structures are provided in FIG. 8A). Experiments were undertaken to establish whether any of these LuxN antagonist molecules could also interfere with AHL binding to CviR. […] The native C6-HSL signal was added exogenously and held constant at 5 μM and violacein production was measured in the presence of 50 μM of each potential antagonist (FIG. 8B).

CviR [4] = target: T1, CviR (Chromobacterium violaceum, UniProt D3W065); format: binding; parameters: made in house; host or cells: E. coli BL21(DE3) pLysS, plasmid pET23b; details: for DNA binding of ligand-loaded CviR to vioA promoter: CviR 100-500 nM
Description: (§2) CviR Overexpression and Purification. CviR was overexpressed in BL21(DE3) pLysS by growing an overnight culture in LB supplemented with 100 μg/mL ampicillin and 10 μg/mL chloramphenicol. The culture was diluted 1:50 into fresh LB supplemented with 100 μg/mL ampicillin and 10 μg/mL chloramphenicol and grown shaking at 37° C. to an OD600 of 0.4. Various AHL or antagonist molecules were added to at 50 μM and incubated an additional 30 minutes at 30° C., after which expression was induced by the addition of 100 μM IPTG (isopropyl-β-D-thiogalactopyranoside) for 4 hours at 30° C. Cells were harvested by centrifugation and lysed in 20 mM imidazole pH 8.0, 100 mM NaCl, 0.5 mM EDTA and 5% glycerol via a Micro-fluidizer processor (MicroFluidics). Protein was purified via ion-exchange using a Hitrap Heparin HP column (GE Healthcare). Protein was eluted with a 100 mM to 1 M NaCl gradient. Fractions containing CviR were pooled and diluted in lysis buffer devoid of NaCl, and then further purified by cation exchange chromatography using a Hitrap SP HP column (GE Healthcare). CviR was eluted with a 100 mM to 1 M NaCl gradient.
DNA probes for gel mobility shift analyses were generated by standard polymerase chain reaction using primers with a 5′ 6-FAM (fluorescein) tag (Integrated DNA Technologies). The target probe contained about 100 nucleotides of the vioA promoter. The control probe contained 300 bases of vioB intergenic DNA. 37 ng of each probe was incubated for 20 minutes at room temperature with the indicated amounts of CviR (0, 0.1, 0.2, 0.3, 0.4 and 0.5 μM) and 1 μg/μL poly-dIdC in 1× Gel shift buffer (40 mM Tris HCl pH 8.0, 100 mM KCL, 2 mM EDTA, 2 mM DTT, 10% glycerol, 200 μg/mL BSA). Gel mobility shifts were performed on 6% TGE-polyacrylamide gels and visualized using a Storm 860 Imaging System (Molecular Dynamics).
To further investigate the mechanism underlying antagonism of the CviR receptor, an examination was undertaken of whether the soluble CviR antagonist complexes were incapable of binding DNA, and thus unable to activate transcription. […] The CviR protein was also purified in complex with each of the synthetic antagonist molecules, 4606-4237, CTL, and CL. Performance of DNA gel mobility shift analyses enabled assessment of the binding of each of these purified, loaded protein complexes to the vioA promoter.
The reciprocal experiment tested whether C6-HSL could replace CL bound to CviR.

CviR [5] = target: T1, CviR; format: cell-based; parameters: made in house; host or cells: E. coli BL21(DE3) pLysS, plasmid pET23b; details: for EC50: E. coli expressing CviR, vioA-gfp reporter, read-out: EC50 for activation of vioA-gfp expression; for maximal level of vioA-gfp expression: compared with C6-HSL; for induction of vioA-gfp expression through CviR: even at 100 μM
Description: (§3) The vioA-gfp promoter fusion was constructed by amplifying the vioA promoter and cloning this region upstream of gfp in pEVS141 at the SphI and SalI sites. Cells containing the vioA-gfp construct were electroporated with the pET23 carrying cviR and selected on LB medium supplemented with 75 μg/mL ampicillin and 50 μg/mL kanamycin. The E. coli strain containing cviR and the vio:gfp reporter is named ELS1257.
as §1
To examine the specificity and sensitivity of CviR, an E. coli strain was engineered that expresses CviR and contains a plasmid harboring the vioA promoter fused to green fluorescent protein (gfp). Thus, the ability of CviR to activate transcription can be assessed by measuring gfp expression in the presence of various molecules.

CviR [6] = target: T1, CviR; details: CviR expressed in E. coli, whole cell vs soluble extract, ligand 50 μM
Description: as §2
The solubility characteristics of CviR were analyzed in the presence of the various molecules under study. […] As controls, the protein was also expressed in the absence of any AHL or antagonist. In each case, whole cell and soluble fractions of cell lysates were analyzed by SDS-PAGE to assess whether the CviR protein in question had been stabilized.

CviR [7] = target: T1, CviR; test: cell-based; format: cell-based; parameters: made in house; host or cells: E. coli BL21(DE3) pLysS, plasmid pET23b; details: constant 500 nM C6-HSL; read-out: IC50 for inhibition of vioA-gfp expression
Description: as §3, §1
However, binding of the longer acyl-tail length AHL molecules disrupts the transcriptional activation ability of CviR.
To determine if 4606-4237 inhibits violacein production specifically by interfering with CviR, 4606-4237 was tested for antagonism of CviR in the recombinant E. coli vioA-gfp assay. For these experiments, C6-HSL was held constant at 500 nM, while 4606-4237 was titrated from 1.3 nM to 100 μM (FIG. 3D). […] Importantly, no C. violaceum components other than CviR are present in the recombinant E. coli assay strain. Thus, any inhibition occurring would be due to a specific interaction between the antagonist molecule 4606-4237 and CviR rather than an interaction of 4606-4237 with some unknown component required for violacein production in C. violaceum.

T1 sequence (D3W065 1-265): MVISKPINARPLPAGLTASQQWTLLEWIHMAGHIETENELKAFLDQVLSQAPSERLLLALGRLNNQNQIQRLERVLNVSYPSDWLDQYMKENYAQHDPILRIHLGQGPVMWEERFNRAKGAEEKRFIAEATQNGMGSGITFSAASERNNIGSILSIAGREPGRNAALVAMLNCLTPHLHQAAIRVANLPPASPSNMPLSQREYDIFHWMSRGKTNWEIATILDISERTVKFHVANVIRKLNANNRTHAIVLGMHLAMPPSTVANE

Compound	DNA binding of ligand-loaded CviR to vioA promoter (CviR [4])	EC50 (CviR [5])	induction of vioA-gfp expression through CviR (CviR [5])	IC50 (CviR [7])	also measured
Cc1cc(Cl)ccc1OCCCC(=O)NC1CCSC1=O (centres unmarked) [4606-4237, 4-(4-chloro-2-methylphenoxy)-N-(2-oxotetrahydrothiophen-3-yl)butanamide]	no ability to bind DNA				IC50 [1]: 1200 nM; inhibition of bacterial growth (bacterial growth): does not inhibit bacterial growth; C. elegans median survival ([2]; C6-HSL 5 μM and 4606-4237 50 μM added simultaneously): twelve; effect on C. elegans ([2]; no C6-HSL, 4606-4237 50 μM): had little affect on C. elegans; violacein production [3]: completely abolished violacein production
CCCC(=O)N[C@H]1CCOC1=O [C4-HSL]		12000 nM			maximal level of vioA-gfp expression (CviR [5]): can induce maximal vioA-gfp expression
CCCCCC(=O)N[C@H]1CCOC1=O [C6-HSL, C6-homoserine lactone]	binds DNA with high affinity	75 nM			CviR folding and solubility in presence of ligand (CviR [6]): soluble; median C. elegans lifespan ([2]; C6-HSL 5 μM added): 4 days; ligand exchange on loaded CviR, effect on DNA binding (CviR [4]; 500 nM loaded CviR, competing ligand 0-10 μM): not likewise capable of replacing CL to generate fully competent DNA bound complex
CCCCCCCC(=O)N[C@H]1CCOC1=O [C8-HSL]	bound DNA with similar affinity to the C6-HSL loaded CviR complex	30 nM			maximal level of vioA-gfp expression (CviR [5]): half of the maximal vioA-gfp expression induced by C6-HSL
CCCCCCCCCC(=O)N[C@H]1CCOC1=O [C10-HSL, reference compound]	does not abolish DNA binding		do not induce vioA-gfp expression	208 nM	CviR folding and solubility in presence of ligand (CviR [6]): soluble
CCCCCCCCCCCC(=O)N[C@H]1CCOC1=O [C12-HSL]	no ability to bind DNA		do not induce vioA-gfp expression	494 nM	
CCCCCCCCCCCCCC(=O)N[C@H]1CCOC1=O [C14-HSL]	no ability to bind DNA		do not induce vioA-gfp expression	268 nM	

— US9468624B2, “Small molecule antagonists of bacterial quorum-sensing receptors” (priority 2008, dated 2016)
